Some test systems named below: M14; SR; UACC-62; OVCAR-8; DU-145; SK-MEL-28; A549; CAKI-1; MOLT-4; HCT-116; RPMI-8226; SK-MEL-5; EKVX; NCI-H226; HL-60; SK-MEL-2; HCC 2998; 786-0; MDA-MB-435.
Holding throughout (assay): NCI tumour cell line growth inhibition, 48 h

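Compound exposure: 48 hours, 5 concentrations, 96-well plates. Abbreviation: GI50, concentration required for 50% inhibition of growth.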 Calls of active or inactive are those of the source. Cut-off read from the data, not from the text of the source: active = GI50 up to about 1.1 µM and inactive = higher. Bounds are passed on as bounds.

Take `O=[N+]([O-])c1ccc2c(c1)=[N+]([O-])C1(CCCCC1)[N+]=2[O-]`: the GI50 in the assay on M14 was 15.6 µM (inactive); with SR it was 6.43 µM (inactive); in the assay with UACC-62 it was 10.4 µM (inactive); with OVCAR-8, 15.8 µM (inactive); with DU-145, 18.9 µM (inactive); with SK-MEL-28, 19.3 µM (inactive). For the same compound, the GI50 in the assay on A549 was 19.7 µM (inactive); with CAKI-1, 20.4 µM (inactive); in the assay on MOLT-4, 6.15 µM (inactive); in the assay with HCT-116, 17.1 µM (inactive); in the assay with RPMI-8226, 10.2 µM (inactive); in the assay with SK-MEL-5 it was 15 µM (inactive). Further, the GI50 in the assay on EKVX was 15.5 µM (inactive); with NCI-H226, 21.1 µM (inactive); in the assay on HL-60, 3.27 µM (inactive); with SK-MEL-2, 22.1 µM (inactive); in the assay on HCC 2998, 18.3 µM (inactive); with 786-0, 11.5 µM (inactive). Also, the GI50 in the assay on MDA-MB-435 was 13.7 µM (inactive).
Turning to `COC(=O)/C(=C(\C)NC(C)=O)c1c(C(=O)OC)[nH]c2ccccc12`, the GI50 in the assay with M14, with SR, in the assay on UACC-62, with OVCAR-8, in the assay on DU-145 and with SK-MEL-28 was > 100 µM (inactive) in each case. Also, the GI50 with A549, in the assay with CAKI-1, in the assay on MOLT-4, in the assay with HCT-116, in the assay on RPMI-8226 and in the assay on SK-MEL-5 was > 100 µM (inactive) each time. The GI50 with EKVX, with NCI-H226, in the assay on HL-60, with SK-MEL-2, with HCC 2998 and in the assay with 786-0 was > 100 µM (inactive) each time. Also, the GI50 in the assay on MDA-MB-435 was > 100 µM (inactive).
Turning to `c1ccc(-c2cc(-c3cc(-c4ccccn4)[nH]n3)n[nH]2)nc1`, the GI50 with M14 is 30.8 µM (inactive); with SR it was 17.6 µM (inactive); in the assay with UACC-62, > 100 µM (inactive); with OVCAR-8, > 100 µM (inactive); with DU-145 it was 95.7 µM (inactive); with SK-MEL-28 it was > 100 µM (inactive). The GI50 with A549 was 75.2 µM (inactive); in the assay with CAKI-1, > 100 µM (inactive); in the assay with MOLT-4 it was 33.3 µM (inactive); in the assay with HCT-116, 27.7 µM (inactive); in the assay on RPMI-8226, 70.6 µM (inactive); with SK-MEL-5, > 100 µM (inactive). Moreover, the GI50 in the assay with EKVX is 25.4 µM (inactive); in the assay with NCI-H226 it was > 100 µM (inactive); with HL-60 it was 84.3 µM (inactive); with SK-MEL-2 it was > 100 µM (inactive); with HCC 2998, 28.6 µM (inactive); in the assay on 786-0, 41.9 µM (inactive). In addition, the GI50 in the assay on MDA-MB-435 was > 100 µM (inactive).
Take `COC(=O)c1ccccc1C#CC#Cc1ccccc1C(=O)OC`: the GI50 in the assay with M14 was > 10 µM (inactive); in the assay on SR it was > 10 µM (inactive); in the assay with UACC-62, > 10 µM (inactive); with OVCAR-8, 6.21 µM (inactive); with DU-145, > 10 µM (inactive); in the assay on SK-MEL-28, > 10 µM (inactive). For the same compound, the GI50 in the assay on A549, in the assay on CAKI-1, in the assay with MOLT-4, in the assay with HCT-116, with RPMI-8226 and with SK-MEL-5 was > 10 µM (inactive) throughout. Moreover, the GI50 with EKVX was > 10 µM (inactive); with NCI-H226, 5.48 µM (inactive); with HL-60, 4.76 µM (inactive); in the assay on SK-MEL-2, > 10 µM (inactive); with HCC 2998, > 10 µM (inactive); in the assay with 786-0, > 10 µM (inactive). Further, in the assay with MDA-MB-435, the GI50 is > 10 µM (inactive).
Take `O=C1c2ccccc2-c2nnc3c(c21)Cc1ccccc1C3`: the GI50 in the assay on M14, in the assay with SR, in the assay on UACC-62, in the assay on OVCAR-8, in the assay on DU-145 and in the assay on SK-MEL-28 was > 10 µM (inactive) in each case. Also, the GI50 in the assay on A549, with CAKI-1, in the assay on MOLT-4, with HCT-116, with RPMI-8226 and with SK-MEL-5 was > 10 µM (inactive) throughout. The GI50 in the assay on EKVX, in the assay on NCI-H226, in the assay with HL-60, in the assay on SK-MEL-2, in the assay with HCC 2998 and in the assay with 786-0 was > 10 µM (inactive) each time. Moreover, the GI50 in the assay with MDA-MB-435 is > 10 µM (inactive).
With `[N-]=[N+]=NI1OC(C(F)(F)F)(C(F)(F)F)c2ccccc21`, the GI50 in the assay with M14 was 31.2 µM (inactive); in the assay on SR, 15.6 µM (inactive); in the assay with UACC-62, 18 µM (inactive); in the assay on OVCAR-8, 16.3 µM (inactive); in the assay with DU-145, 18 µM (inactive); in the assay with SK-MEL-28, 13.9 µM (inactive). Further, the GI50 with A549 was 14.9 µM (inactive); in the assay on CAKI-1 it was 8.55 µM (inactive); in the assay on MOLT-4, 14.7 µM (inactive); in the assay with HCT-116, 17.3 µM (inactive); with RPMI-8226 it was 12.1 µM (inactive); in the assay with SK-MEL-5, 1.24 µM (inactive). Further, the GI50 is 16.9 µM (inactive) in the assay with EKVX; 18.4 µM (inactive) with NCI-H226; 15.4 µM (inactive) with HL-60; 16 µM (inactive) in the assay with SK-MEL-2; 17.9 µM (inactive) with HCC 2998; 15.5 µM (inactive) in the assay with 786-0. In addition, the GI50 in the assay with MDA-MB-435 was 17.5 µM (inactive).
For the compound `O=[N+]([O-])c1ccc2c(c1)/C(=N/N=C1c3ccccc3Cc3ccccc31)c1cc([N+](=O)[O-])cc([N+](=O)[O-])c1-2`, the GI50 in the assay on M14 was 2.49 µM (inactive); in the assay with SR, 4.61 µM (inactive); in the assay with UACC-62, 2.62 µM (inactive); in the assay with OVCAR-8, 1.67 µM (inactive); with DU-145, 5.82 µM (inactive); with SK-MEL-28, 3.45 µM (inactive). Also, the GI50 was 9.4 µM (inactive) in the assay with A549; 3.6 µM (inactive) in the assay with CAKI-1; 1.91 µM (inactive) in the assay on MOLT-4; 1.57 µM (inactive) with HCT-116; 4.39 µM (inactive) in the assay with RPMI-8226; 4.42 µM (inactive) in the assay on SK-MEL-5. In addition, the GI50 in the assay with EKVX was 5.12 µM (inactive); in the assay on NCI-H226, 13.4 µM (inactive); with HL-60 it was 2.26 µM (inactive); with SK-MEL-2 it was 9.18 µM (inactive); in the assay on HCC 2998, 5.85 µM (inactive); with 786-0, 1.72 µM (inactive). In the assay with MDA-MB-435, the GI50 was 1.79 µM (inactive).
`N/C(=N\Nc1ccc(S(N)(=O)=O)cc1)c1cnccn1`: the GI50 in the assay on M14, in the assay on SR, in the assay on UACC-62, in the assay on OVCAR-8, in the assay with DU-145 and in the assay with SK-MEL-28 was > 100 µM (inactive) each time. Moreover, the GI50 with A549, with CAKI-1, in the assay on MOLT-4, with HCT-116, with RPMI-8226 and with SK-MEL-5 was > 100 µM (inactive) throughout. The GI50 in the assay on EKVX, in the assay on NCI-H226, in the assay with HL-60, with SK-MEL-2, with HCC 2998 and in the assay on 786-0 was > 100 µM (inactive) each time. Moreover, in the assay with MDA-MB-435, the GI50 is > 100 µM (inactive).
Turning to `C=C1CC[C@@H]2[C@](C)(COC(=O)CCC(=O)O)CCC[C@@]2(C)[C@@H]1CCC1=CC(=O)OC1`, the GI50 with M14 is > 100 µM (inactive); in the assay with SR, > 10 µM (inactive); in the assay with UACC-62 it was > 100 µM (inactive); with OVCAR-8, > 100 µM (inactive); in the assay with DU-145, 5.97 µM (inactive); in the assay with SK-MEL-28, > 100 µM (inactive). Moreover, the GI50 in the assay with A549 is > 100 µM (inactive); with CAKI-1 it was > 100 µM (inactive); in the assay with MOLT-4, > 100 µM (inactive); in the assay on HCT-116, > 100 µM (inactive); in the assay on RPMI-8226, > 100 µM (inactive); in the assay with SK-MEL-5 it was 42.9 µM (inactive). The GI50 in the assay with EKVX, in the assay with NCI-H226, with HL-60, in the assay on SK-MEL-2, in the assay with HCC 2998 and with 786-0 was > 100 µM (inactive) each time. In addition, the GI50 with MDA-MB-435 was > 100 µM (inactive).
Consider `C=C1CC(C)(COc2ccc3c(C)c(Cl)c(=O)oc3c2)OC1=O` (stereo not given), for which the GI50 in the assay with M14 is 1.26 µM (inactive); in the assay with SR, 0.865 µM (active); in the assay on UACC-62 it was 1.39 µM (inactive); in the assay with OVCAR-8, 2.75 µM (inactive); in the assay with DU-145, 2.4 µM (inactive); in the assay with SK-MEL-28, 2.42 µM (inactive). The GI50 in the assay with A549 was 11.1 µM (inactive); with CAKI-1, 0.59 µM (active); with MOLT-4, 1.05 µM (active); in the assay on HCT-116 it was 0.408 µM (active); with RPMI-8226 it was 0.391 µM (active); in the assay on SK-MEL-5 it was 1.43 µM (inactive). Besides, the GI50 with EKVX was 5.9 µM (inactive); with NCI-H226, 2.83 µM (inactive); with HL-60 it was 0.12 µM (active); in the assay with SK-MEL-2, 1.44 µM (inactive); in the assay on HCC 2998, 1.81 µM (inactive); in the assay with 786-0 it was 1.35 µM (inactive). Also, the GI50 in the assay on MDA-MB-435 is 2.97 µM (inactive).
